Results taken from US20110160146A1, “Conjungation of Small Molecules to Octaarginine Transporters for Overcoming Multi-Drug Resistance” (National Institute of Health (NIH), priority 2008, published 2011).
Non-standard residues stand in square brackets, D forms with d. Residues, ends and D or L forms follow the SMILES beside them. *: point of attachment. Paclitaxel(2'-OCO(CH2)3S) = CC(=O)O[C@H]1C(=O)[C@@]2(C)[C@H]([C@H](OC(=O)c3ccccc3)[C@]3(O)C[C@H](OC(=O)[C@H](OC(=O)CCCS*)[C@@H](NC(=O)c4ccccc4)c4ccccc4)C(C)=C1C3(C)C)[C@]1(OC(C)=O)CO[C@@H]1C[C@@H]2O; X2 = CC(=O)O[C@H]1C(=O)[C@@]2(C)[C@H]([C@H](OC(=O)c3ccccc3)[C@]3(O)C[C@H](OC(=O)[C@H](OC(=O)OCCS*)[C@@H](NC(=O)c4ccccc4)c4ccccc4)C(C)=C1C3(C)C)[C@]1(OC(C)=O)CO[C@@H]1C[C@@H]2O; X1 = CC(=O)O[C@H]1C(=O)[C@]2(C)[C@@H](OC(=O)CCCS*)C[C@H]3OC[C@@]3(OC(C)=O)[C@H]2[C@H](OC(=O)c2ccccc2)[C@]2(O)C[C@H](OC(=O)[C@H](O)[C@@H](NC(=O)c3ccccc3)c3ccccc3)C(C)=C1C2(C)C; X3 = O=C(OCCCS*)Oc1ccc(-c2cn3c(=O)c(Cc4ccccc4)nc-3c(Cc3ccccc3)[nH]2)cc1

Key:
OVCA 433TxT = assay: cells; conditions: read-out: IC50 concentration; OVCA 433TxT (taxotere selected); 20 min incubation, washed, 72 hr drug-free media
Method: (§1) After 72 hours, the cytotoxicity of the relevant compound was determined by an MTT based assay.
(§2) Within the panel of human cancer cells, there were three sets of related sensitive and resistant cell lines, the latter based wholly or in part on Pgp-mediated efflux. These resistant lines were either created through stable transfection of MCF-7 cells with Pgp (MCF-7-Pgp), or by selection through exposure of OVCA429 and OVCA433 cells to taxol (OVCA429T and OVCA433T)^19 or taxotere (OVCA429TxT and OVCA433TxT), creating a complex MDR phenotype including Pgp upregulation.
(§3) Cell Lines; SKOV-3 cells were obtained from ATCC; UCI-101 and UCI-107 cell lines were obtained from Drs. P. DiSaia and A. Manetta, University of California; MCF-7 and MCF-7-Pgp were obtained from Dr. D. Piwnica-Worms, Washington University; OVCA429, OVCA433 and the taxane resistant derivatives of these cells (OVCA429T, OVCA429TxT, OVCA433T and OVCA433TxT) were obtained from Dr. B. Sikic, Stanford University. All cells were grown in DMEM with 10% FBS.
(§4) Cell Cytotoxicity Assay. The cytotoxicity of relevant compounds was determined by IC50 assay. Cells were seeded overnight into 96-well plates, and then incubated with a serial dilution of the indicated compound for 20 min, before washing twice with fresh media, and incubation at 37° C. for 72 hr in drug-free media. The IC50 values were determined as the concentration of compound required to inhibit the viability of the cell layer by 50% relative to untreated, and cell-free control wells (100 and 0% viability respectively) determined from semi-logarithmic dose response curves. […] Bioluminescence was determined using an IVIS 50 system (Caliper Life Sciences, Alameda, Calif.). Each compound and dilution was tested in triplicate per experiment, with each experiment reproduced three times.

OVCA 429T = assay: cells; conditions: read-out: IC50 concentration; OVCA 429T (taxol resistant); 20 min incubation, washed, 72 hr drug-free media
Method: as §1, §2, §3, §4

OVCA 429TxT = assay: cells; conditions: read-out: IC50 concentration; OVCA 429TxT (taxotere selected); 20 min incubation, washed, 72 hr drug-free media
Method: as §1, §2, §3, §4

OVCA 433T = assay: cells; conditions: read-out: IC50 concentration; OVCA 433T (taxol resistant); 20 min incubation, washed, 72 hr drug-free media
Method: as §1, §2, §3, §4

[1] = Hydrolytic stability (HBS, pH 7.4, 37° C.); format: physicochemical
Method: A conjugate in which a drug to be delivered and a transporter are linked by a specifically cleavable or specifically releasable linker will have a half-life. The term “half-life” in this context refers to the amount of time required for one half of the amount of conjugate to become dissociated to release the free drug. The “accelerated” (37° C.) hydrolytic half-lives of the conjugates ranged from 19 to 97 hours, extending well beyond the incubation times (≦20 minutes) used for cell assays. Stabilities of the conjugates as solids at room temperature extend for months. […] The half-life of a conjugate can be “tuned” or modified, according to the invention, as described below.
The “accelerated” (37° C.) hydrolytic half-lives of the tetra- and octaarginine conjugates ranged from 19 to 97 hours, extending well beyond the incubation times (s 20 minutes) used for cell assays. Stability as a solid at room temperature extends for months. […] The activities of various conjugate-linker combinations were evaluated using a panel of human cancer cells, leading to the identification of ester-linked conjugates 2a and 3a as preferred candidates (Table 2).

SKOV-3 = assay: cells; conditions: read-out: IC50 concentration; SKOV-3; 20 min incubation, washed, 72 hr drug-free media
Method: as §1, §3, §4

UCI-107 luc = assay: cells; conditions: read-out: IC50 concentration; UCI-107 luc; 20 min incubation, washed, 72 hr drug-free media; MTT assay or luciferase activity
Method: as §1, §3, §4

OVCA 429 = assay: cells; conditions: read-out: IC50 concentration; OVCA 429; 20 min incubation, washed, 72 hr drug-free media
Method: as §1, §3, §4

UCI-101 luc = assay: cells; conditions: read-out: IC50 concentration; UCI-101 luc; 20 min incubation, washed, 72 hr drug-free media; MTT assay or luciferase activity
Method: as §1, §3, §4

OVCA 433 = assay: cells; conditions: read-out: IC50 concentration; OVCA 433; 20 min incubation, washed, 72 hr drug-free media
Method: as §1, §3, §4

MCF-7 = assay: cells; conditions: read-out: IC50 concentration; MCF-7; 20 min incubation, washed, 72 hr drug-free media
Method: as §1, §3, §4

MCF-7-pgp = assay: Cell cytotoxicity assay (IC50), MCF-7-pgp; conditions: read-out: IC50 concentration; MCF-7-pgp (Pgp transfected); 20 min incubation, washed, 72 hr drug-free media
Method: as §1, §2, §3, §4

OVCA429 cells = assay: Cell cycle assay, OVCA429; format: cell-based, human; design: dose or concentration left out as unconfirmed; conditions: analysis after 24 hr, 7-AAD flow cytometry
Method: FIG. 1. Mechanisms of action of octaarginine taxol conjugates. (a) Tubulin polymerization assay.
The percentage of cells in G2/M was recorded. Data from 3 separate experiments were combined.
Statistical significance was determined as p<0.05.

[2] = Method: FIG. 2. Effect of octaarginine (r8) conjugation on biodistribution of drug. […] (a) Representative image of treated mice at 40 min post injection. (b) Total signal per mouse at times post injection (average of two experiments).
Biolumninescence signal was determined at regular time points immediately after injection using an IVIS 200 system (Caliper Life Sciences, Alameda, Calif.).

SMILES: CC(=O)N[C@H](CSSCCCC(=O)O[C@@H](C(=O)O[C@H]1C[C@@]2(O)[C@@H](OC(=O)c3ccccc3)[C@@H]3[C@]4(OC(C)=O)CO[C@@H]4C[C@H](O)[C@@]3(C)C(=O)[C@H](OC(C)=O)C(=C1C)C2(C)C)[C@@H](NC(=O)c1ccccc1)c1ccccc1)C(=O)N[C@H](CCCNC(=N)N)C(=O)N[C@H](CCCNC(=N)N)C(=O)N[C@H](CCCNC(=N)N)C(=O)N[C@H](CCCNC(=N)N)C(=O)N[C@H](CCCNC(=N)N)C(=O)N[C@H](CCCNC(=N)N)C(=O)N[C@H](CCCNC(=N)N)C(=O)N[C@H](CCCNC(=N)N)C(N)=O [2a, Taxol C2′ ester octaarginine conjugate] (Ac-[dC](Paclitaxel(2'-OCO(CH2)3S))[dR][dR][dR][dR][dR][dR][dR][dR]-NH2)
- IC50 (OVCA 433TxT): 2980 nM
- IC50 (OVCA 429T): 420 nM
- IC50 (OVCA 429TxT): 101 nM
- IC50 (OVCA 433T): 131 nM
- half-life [1]: 23 h
- IC50 (SKOV-3): 11 nM
- IC50 (UCI-107 luc): 92 nM
- IC50 (OVCA 429): 42 nM
- IC50 (UCI-101 luc): 58 nM
- IC50 (OVCA 433): 21 nM
- IC50 (MCF-7): 40 nM
- IC50 (MCF-7-pgp): 151 nM

SMILES: CC(=O)N[C@H](CSSCCCC(=O)O[C@@H](C(=O)O[C@H]1C[C@@]2(O)[C@@H](OC(=O)c3ccccc3)[C@@H]3[C@]4(OC(C)=O)CO[C@@H]4C[C@H](O)[C@@]3(C)C(=O)[C@H](OC(C)=O)C(=C1C)C2(C)C)[C@@H](NC(=O)c1ccccc1)c1ccccc1)C(=O)N[C@H](CCCNC(=N)N)C(=O)N[C@H](CCCNC(=N)N)C(=O)N[C@H](CCCNC(=N)N)C(=O)N[C@H](CCCNC(=N)N)C(N)=O [2b, Taxol C2′ ester tetraarginine conjugate]
- percentage of cells in the G2/M phase relative to taxol (OVCA429 cells): significantly greater percentage
- half-life [1]: 19 h

SMILES: CC(=O)N[C@H](CSSCCCC(=O)O[C@H]1C[C@H]2OC[C@@]2(OC(C)=O)[C@H]2[C@H](OC(=O)c3ccccc3)[C@]3(O)C[C@H](OC(=O)[C@H](O)[C@@H](NC(=O)c4ccccc4)c4ccccc4)C(C)=C([C@@H](OC(C)=O)C(=O)[C@]12C)C3(C)C)C(=O)N[C@H](CCCNC(=N)N)C(=O)N[C@H](CCCNC(=N)N)C(=O)N[C@H](CCCNC(=N)N)C(=O)N[C@H](CCCNC(=N)N)C(=O)N[C@H](CCCNC(=N)N)C(=O)N[C@H](CCCNC(=N)N)C(=O)N[C@H](CCCNC(=N)N)C(=O)N[C@H](CCCNC(=N)N)C(N)=O [3a, Taxol C7 ester octaarginine conjugate] (Ac-[dC](X1)[dR][dR][dR][dR][dR][dR][dR][dR]-NH2)
- IC50 (OVCA 433TxT): 1280 nM
- IC50 (OVCA 429T): 225 nM
- IC50 (OVCA 429TxT): 93 nM
- IC50 (OVCA 433T): 95 nM
- half-life [1]: 97 h
- IC50 (SKOV-3): 24 nM
- IC50 (UCI-107 luc): 233 nM
- IC50 (OVCA 429): 125 nM
- IC50 (UCI-101 luc): 170 nM
- IC50 (OVCA 433): 62 nM
- IC50 (MCF-7): 146 nM
- IC50 (MCF-7-pgp): 83 nM

SMILES: CC(=O)N[C@H](CSSCCCC(=O)O[C@H]1C[C@H]2OC[C@@]2(OC(C)=O)[C@H]2[C@H](OC(=O)c3ccccc3)[C@]3(O)C[C@H](OC(=O)[C@H](O)[C@@H](NC(=O)c4ccccc4)c4ccccc4)C(C)=C([C@@H](OC(C)=O)C(=O)[C@]12C)C3(C)C)C(=O)N[C@H](CCCNC(=N)N)C(=O)N[C@H](CCCNC(=N)N)C(=O)N[C@H](CCCNC(=N)N)C(=O)N[C@H](CCCNC(=N)N)C(N)=O [3b, Taxol C7 ester tetraarginine conjugate]
- half-life [1]: 68 h

SMILES: CC(=O)N[C@H](CSSCCOC(=O)O[C@@H](C(=O)O[C@H]1C[C@@]2(O)[C@@H](OC(=O)c3ccccc3)[C@@H]3[C@]4(OC(C)=O)CO[C@@H]4C[C@H](O)[C@@]3(C)C(=O)[C@H](OC(C)=O)C(=C1C)C2(C)C)[C@@H](NC(=O)c1ccccc1)c1ccccc1)C(=O)N[C@H](CCCNC(=N)N)C(=O)N[C@H](CCCNC(=N)N)C(=O)N[C@H](CCCNC(=N)N)C(=O)N[C@H](CCCNC(=N)N)C(=O)N[C@H](CCCNC(=N)N)C(=O)N[C@H](CCCNC(=N)N)C(=O)N[C@H](CCCNC(=N)N)C(=O)N[C@H](CCCNC(=N)N)C(N)=O [4a, Taxol C2′ octaarginine conjugate] (Ac-[dC](X2)[dR][dR][dR][dR][dR][dR][dR][dR]-NH2)
- half-life [1]: 32 h

SMILES: CC(=O)N[C@H](CSSCCOC(=O)O[C@@H](C(=O)O[C@H]1C[C@@]2(O)[C@@H](OC(=O)c3ccccc3)[C@@H]3[C@]4(OC(C)=O)CO[C@@H]4C[C@H](O)[C@@]3(C)C(=O)[C@H](OC(C)=O)C(=C1C)C2(C)C)[C@@H](NC(=O)c1ccccc1)c1ccccc1)C(=O)N[C@H](CCCNC(=N)N)C(=O)N[C@H](CCCNC(=N)N)C(=O)N[C@H](CCCNC(=N)N)C(=O)N[C@H](CCCNC(=N)N)C(N)=O [4b, Taxol C2′ tetraarginine conjugate]
- half-life [1]: 26 h

SMILES: CC(=O)N[C@H](CSSCCCOC(=O)Oc1ccc(-c2cn3c(=O)c(Cc4ccccc4)nc-3c(Cc3ccccc3)[nH]2)cc1)C(=O)N[C@H](CCCNC(=N)N)C(=O)N[C@H](CCCNC(=N)N)C(=O)N[C@H](CCCNC(=N)N)C(=O)N[C@H](CCCNC(=N)N)C(=O)N[C@H](CCCNC(=N)N)C(=O)N[C@H](CCCNC(=N)N)C(=O)N[C@H](CCCNC(=N)N)C(=O)N[C@H](CCCNC(=N)N)C(N)=O [compound 6, Coelenterazine octaarginine conjugate] (Ac-[dC](X3)[dR][dR][dR][dR][dR][dR][dR][dR]-NH2)
- half-life [1]: 0.117 h

SMILES: CC(=O)N[C@H](CSSCCCCOC(=O)Oc1ccc2nc(C3=N[C@@H](C(=O)O)CS3)sc2c1)C(=O)N[C@H](CCCNC(=N)N)C(=O)N[C@H](CCCNC(=N)N)C(=O)N[C@H](CCCNC(=N)N)C(=O)N[C@H](CCCNC(=N)N)C(=O)N[C@H](CCCNC(=N)N)C(=O)N[C@H](CCCNC(=N)N)C(=O)N[C@H](CCCNC(=N)N)C(=O)N[C@H](CCCNC(=N)N)C(N)=O [compound 7, Luciferin octaarginine conjugate]
- half-life [1]: 30 h
- calculated area under the curve (total light production) ([2]; intraperitoneal injection, luciferase transgenic mice): similar
- biodistribution after intraperitoneal injection ([2]; transgenic mice ubiquitously expressing Firefly luciferase, equimolar to 5 mg/kg): did not distribute throughout the body, remaining instead near the site of administration
